Laboratory results published in US4269940A, “Microbiological alkane oxidation process” (priority 1979, dated 1981).

Tests used:
[1] = tested on: P(40) particulate fraction of Methylosinus sp. (CRL-15, NRRL B-11,202); experiment: Oxidation of n-alkenes and n-alkanes by P(40) particulate fraction (Table X); format: biochemical; conditions: P(40) fraction, 30° C.
[2] = tested on: purified secondary alcohol dehydrogenase; experiment: Inhibition of purified yeast secondary alcohol dehydrogenase; format: biochemical, Pichia sp. NRRL Y-11,328; conditions: purified yeast enzyme
Description: (§1) Large scale cultures of Pichia sp. NRRL Y-11,328 were grown with aeration at 30° C. in a 14-liter New Brunswick f fermentor in a mineral salt medium containing methanol (0.4%, v/v) as the sole carbon source. The cells (200 g., wet weight) were suspended in 50 mm sodium phosphate buffer, pH 7.0, containing 1 mM dithiothreitol (buffer A), and crude extracts were prepared as described previously. To the crude extracts, 18 ml. of protamine sulfate solution [2% solution in 0.1 M tris (hydroxymethyl) aminomethane (tris) base] was added dropwise with continuous stirring. After standing for 30 min., the extracts were centrifuged at 20,000 x g. for 60 min. The supernatant solution was fractioned with solid ammonium sulfate. Extracts were brought to 50% of saturation with respect to ammonium sulfate by addition of 313 g. of the salt per liter of extract. Precipitated proteins was removed by centrifugation, and 137 g. of ammonium sulfate was added per liter of the supernatant liquid to bring it to 70% of saturation. Material precipitating between 50 and 70% of saturation was collected by centrifugation and dissolved in buffer A. This preparation was dialyzed overnight against buffer A, and the dialyzed material was applied to a DEAE-cellulose column (5×40 cm) that had been equilibrated with buffer A. The sample was washed with 200 ml. of buffer A and eluted with 2 liters of buffer A that contained NaCl in a linear gradient running from a concentration of 0 to 0.5 M. Fractions of 15 ml. were collected. Fractions containing secondary alcohol dehydrogenase activity were pooled and were termed DEAE-cellulose eluate. The DEAE-cellulose eluate was concentrated by ammonium sulfate fractionation.
(§2) Secondary alcohol dehydrogenase activity was measured spectrophotometrically at 340 nm with a NAD^+ as an electron acceptor. The reaction mixture, in a total 3.0 ml., contained 50 mM phosphate buffer, pH 8.0, 5μmoles NAD^+, crude extracts, and substrate. The reactions were started by addition of 100 μof 0.1 M substrate and the rate of NAD^+ reduction was measured. Protein concentration was determined by the method of Lowry et al.
Various primary alcohols not oxidized by secondary alcohol dehydrogenase were tested as potential inhibitors of enzyme activity.

[3] = tested on: cell-free soluble extracts (SADH system); experiment: Cofactor requirement of cell-free SADH system (2-butanol to 2-butanone); format: biochemical
Description: The clear supernatant contained the SADH activity. […] The reaction was started by the addition of substrate.
Catalytic activity was also assayed by fluorescence spectrophotometry.

[4] = tested on: purified secondary alcohol dehydrogenase; experiment: Substrate and electron acceptor specificity of purified yeast secondary alcohol dehydrogenase; format: biochemical, Pichia sp. NRRL Y-11,328
Description: as §1, §2
The substrate specificity of the purified secondary alcohol dehydrogenase was examined spectrophotometrically.

[5] = tested on: Methylobacter vinelandii (CRL M5Y NRRL B-11,218); experiment: Microbiological oxidation of cyclic hydrocarbons by methane-grown washed cells (Example 7); format: cell-based; conditions: aerobic
Description: A 0.5 ml sample of each washed cell suspension (2 mg cells) was put into 10 ml vials at 4° C. which were sealed with a rubber cap. The gaseous phase of the vials was removed with vacuum and then was replaced with a gas mixture of the oxidative substrate (e.g., methane) and oxygen at a 1:1 v/v ratio. […] Samples of product (3 μl) were withdrawn periodically with a microsyringe and the products were analyzed by gas chromatography (ionization flame detector column).
Methylobacter vinelandii (CRL M5Y NRRL B-11,218) was aerobically grown in a methane-containing nutrient medium in the manner described in Example 1 and the methane-grown washed cells were contacted under aerobic conditions with cyclohexane, benzene and toluene.

[6] = tested on: secondary alcohol dehydrogenase (SADH); experiment: Inhibition of purified secondary alcohol dehydrogenase (SADH); format: biochemical, Pseudomonas sp. ATCC 21439; conditions: inhibitor 1 mM, measured spectrofluorometrically
Description: (§3) Secondary alcohol dehydrogenase (SADH) from an obligate methanol utilizer, Pseudomonas sp. ATCC 21439 was purified as follows. […] 0.05 M sodium phosphate buffer, pH 7.0 with 0.5mM dithiothretol (buffer A) and were disrupted sonically (5×1 min.). The crude extract was separated by centrifugation. The crude extract was heat-treated at 50° C. in a water bath for 10 minutes. The resulting precipitate was removed by centrifugation. To the supernatant solution, 25 ml of protamine sulfate solution (2% solution in 0.1 M Tris base) was added dropwise with continuous stirring. After standing for 30 minutes, the extract was centrifuged. The supernatant solution was fractionated with solid ammonium sulfate. […] This DEAE-cellulose eluate was concentrated by ammonium sulfate fractionation. Material precipitating between 30 and 50% ammonium sulfate saturation was collected by centrifugation and dialyzed overnight against A. This fraction was further washed and filtered through an Amicon unit with XM 50 membrane. The concentrated fraction (6 ml) inside the Amicon unit was applied to an Affi-Gel Blue column (0.8 cm ×18 cm) which had been equilibrated with buffer A for affinity chromatography. The column was washed overnight with buffer A (0.18 ml./min.) and then was eluted with buffer A containing 5 mM NAD. Each 1 ml. fraction was collected.
(§4) The purified secondary alcohol dehydrogenase enzyme (SADH) may be used directly for converting C3 -C6 secondary alcohols to the corresponding methyl ketones by the procedures described above; however, a source of NAD^+ must be added to the reaction medium. One can determine the NAD-linked secondary alcohol dehydrogenase activity with a fluorescence spectrophotometer (Perkin Elmer, Model MPF 44A) by following the formation of reduced NAD (Ex 340 nm, Em 460 nm). The assay system (3 ml.) will typically contain: sodium phosphate buffer pH 7.0, 150 μmol; NAD 1.0 μmol; a given amount of enzyme preparation; and 20 μmol secondary alcohol. The reaction is started by the addition of secondary alcohol. One unit of SADH enzyme activity represents the reduction of one nmole NAD per minute.
The effect of metal-chelating agents and thioreagents on the activity of the purified SADH enzyme were studied. […] The possibility of ethanol or n-propanol as an inhibitor was studied.

[7] = tested on: cell suspensions of the strains of C1-utilizers tested; experiment: Production of methyl ketones from secondary alcohols by cell suspensions of C1-utilizers (strains tested); format: cell-based; conditions: for Inhibition of production of 2-butanone from 2-butanol: cell suspensions of the strains tested
Description: The substrate specificity for the oxidation of C3 -C6 secondary alcohols by the strains of C1 -utilizers was studied.

[8] = tested on: P(40) fraction of Methylosinus sp. (CRL-15, NRRL B-11,202); experiment: Effect of inhibitors on propylene epoxidation and methane hydroxylation by P(40) fraction (Table XI); format: biochemical; conditions: inhibitor 10^-3 M
Description: The oxidation of methane and propylene by particulate [(P)40 and (P)80] fractions and soluble [S(80)] fraction was measured at 30° C. by estimating the production of methanol and propylene oxide, respectively. The reaction mixtures contained in 1.0 ml: 150 mM potassium phosphate buffer, pH 7.0 containing 5 mM MgC2, 0.6 ml; 10 μmoles NADH, and cellular fraction.
Reaction mixtures were contained in 10 ml vials at 4° C. Vials were sealed with rubber caps. The gaseous phase in the vials was removed using vacuum and then was replaced with a gas mixture of methane or propylene and oxygen at a 1:1, v/v ratio. Oxidation of other gaseous n-alkanes and n-alkenes was examined as described above. For liquid substrates, 10 μ of substrate was used directly. Vials were then incubated at 30° C. on a rotary shaker at 200 RPM.
The products of epoxidation of n-alkenes and hydroxylation of n-alkanes were assayed by flame ionization gas chromatography using a stainless steel column (12'×1/8") packed with 10% Carbowax 20M on 80/100 Chromosorb W and Porapak Q column. The column temperature was maintained isothermally at 120° C. The carrier gas flow rate was 30 ml/min. of helium. The various products were identified by retention time comparisons and co-chromatography with authentic standards.
It has been reported that the oxidation of methane by cell suspensions of methane-utilizing bacteria was inhibited by various metal-binding or metal-chelating agents (Patel et al., J. Bacteriol. 126: 1017-1019 (1976)). […] (CRL-15, NRRL B-11,202) was examined.

[9] = tested on: cell-free particulate fractions derived from the methylotrophic microorganisms; experiment: Inhibition of conversion of C3-C6 n-alkanes to sec. alcohols by cell-free particulate fractions; format: biochemical; conditions: oxygen and NADH
Description: The conditions for preparing the cell suspensions or the cell-free particulate fractions from methane-grown methylotroph microorganisms is the same as described above.

[10] = tested on: secondary alcohol dehydrogenase (SADH); experiment: Substrate specificity and Michaelis constants of purified SADH; format: biochemical, Pseudomonas sp. ATCC 21439
Description: as §3, §4

[11] = tested on: purified secondary alcohol dehydrogenase; experiment: Stoichiometry of isopropanol and sec-butanol oxidation by the purified secondary alcohol dehydrogenase (Table XXIV); format: biochemical, Pichia sp. NRRL Y-11,328; conditions: substrate 5.7 (isopropanol) or 6.0 (2-butanol) μmoles
Description: ^a The estimation of NAD^+ reduced was measured
spectrophotometrically at 340 nm.
^b The estimation of products was detected by gas chromatography as
described in the methods.

Structure (SMILES): C=CC=C [Butadiene]
- Rate of product formation (substrate to epoxide or alcohol) [1]: 0.63 μ moles/hr/mg of protein

Structure (SMILES): N[C@@H](CCC(=O)N[C@@H](CS)C(=O)NCC(=O)O)C(=O)O [glutathione]
- Inhibition of secondary alcohol dehydrogenase activity (in words) [2]: strongly inhibited
- Effectiveness as cofactor of the cell-free SADH system [3]: not effective

Structure (SMILES): O=C1C(Cl)=CC(=Nc2ccc(O)cc2)C=C1Cl [dichlorophenol indophenol, reference compound]
- Function as electron acceptor/carrier for the purified yeast enzyme [4]: could not act as electron carrier
- Effectiveness as cofactor of the cell-free SADH system [3]: not effective

Structure (SMILES): Cc1cc2nc3c(=O)[nH]c(=O)nc-3n(C[C@H](O)[C@H](O)[C@H](O)COP(=O)(O)OP(=O)(O)OC[C@H]3O[C@@H](n4cnc5c(N)ncnc54)[C@H](O)[C@@H]3O)c2cc1C [FAD, flavin adenine dinucleotide, reference compound]
- Function as electron acceptor/carrier for the purified yeast enzyme [4]: could not act as electron carrier
- Effectiveness as cofactor of the cell-free SADH system [3]: not effective

Structure (SMILES): C1CCCCC1 [Cyclohexane]
- Conversion rate to cyclohexanol [5]: 1.5 μmoles/2 hr./mg. protein

Structure (SMILES): C[n+]1c2ccccc2nc2ccccc21 [phenazine methosulfate, reference compound]
- Function as electron acceptor/carrier for the purified yeast enzyme [4]: could not act as electron carrier
- Effectiveness as cofactor of the cell-free SADH system [3]: not effective

Structure (SMILES): NC(=O)c1ccc[n+]([C@@H]2O[C@H](COP(=O)([O-])OP(=O)(O)OC[C@H]3O[C@@H](n4cnc5c(N)ncnc54)[C@H](OP(=O)(O)O)[C@@H]3O)[C@@H](O)[C@H]2O)c1 [NADP, reference compound]
- Function as electron acceptor/carrier for the purified yeast enzyme [4]: could not act as electron carrier
- Effectiveness as cofactor of the cell-free SADH system [3]: not effective

Structure (SMILES): C=CCCC [1-Pentene]
- Rate of product formation (substrate to epoxide or alcohol) [1]: 0 μ moles/hr/mg of protein

Structure (SMILES): NC(=O)C1=CN([C@@H]2O[C@H](COP(=O)(O)OP(=O)(O)OC[C@H]3O[C@@H](n4cnc5c(N)ncnc54)[C@H](OP(=O)(O)O)[C@@H]3O)[C@@H](O)[C@H]2O)C=CC1 [NAD(P)H]
- Effectiveness as cofactor of the cell-free SADH system [3]: not effective

Structure (SMILES): CC [Ethane]
- Rate of product formation (substrate to epoxide or alcohol) [1]: 3.2 μ moles/hr/mg of protein

Structure (SMILES): C=C [Ethylene]
- Rate of product formation (substrate to epoxide or alcohol) [1]: 1.27 μ moles/hr/mg of protein

Structure (SMILES): Cc1ccccc1 [toluene]
- Oxidative conversion [5]: no oxidative conversion was detected

Structure (SMILES): NC(=O)c1ccc[n+]([C@@H]2O[C@H](COP(=O)([O-])OP(=O)(O)OC[C@H]3O[C@@H](n4cnc5c(N)ncnc54)[C@H](O)[C@@H]3O)[C@@H](O)[C@H]2O)c1 [NAD, Nicotinamide adenine dinucleotide, reference compound]
- Function as electron acceptor/carrier for the purified yeast enzyme [4]: required
- Effectiveness as cofactor of the cell-free SADH system [3]: required

Structure (SMILES): C=CCC [1-Butene]
- Rate of product formation (substrate to epoxide or alcohol) [1]: 2.18 μ moles/hr/mg of protein

Structure (SMILES): c1ccc(-c2ccccn2)nc1 [α,α-bipyridyl]
- % inhibition of SADH activity [6]: 70%
- Inhibition of production of 2-butanone from 2-butanol [7]: inhibited
- % inhibition of methane-hydroxylating activity [8]: 99%
- % inhibition of propylene-epoxidizing activity [8]: 98%
- Inhibition of conversion of C3-C6 n-alkanes to sec. alcohols (in words) [9]: inhibited

Structure (SMILES): c1ccccc1 [benzene]
- Oxidative conversion [5]: no oxidative conversion was detected

Structure (SMILES): CC(C)O [2-propanol]
- Oxidation by purified SADH (in words) [10]: highest
- Oxidation by the purified yeast enzyme (in words) ([4]; examined spectrophotometrically): catalyzed the oxidation
- Rate of oxidation of secondary alcohols to methyl ketones ([7]; cell suspensions of C1-utilizers): higher rates
- Product formed (acetone or 2-butanone) ([11]; gas chromatography): 5.5 µmol
- NAD^+ reduced ([11]; spectrophotometrically at 340 nm): 5.4 µmol

Structure (SMILES): c1cnc2c(c1)ccc1cccnc12 [1,10-phenanthroline]
- Inhibition of secondary alcohol dehydrogenase activity (in words) [2]: strongly inhibited
- % inhibition of SADH activity [6]: 95%
- Inhibition of production of 2-butanone from 2-butanol [7]: inhibited
- % inhibition of methane-hydroxylating activity [8]: 90%
- % inhibition of propylene-epoxidizing activity [8]: 93%
- Inhibition of conversion of C3-C6 n-alkanes to sec. alcohols (in words) [9]: inhibited
